Data taken from publication PMC5078989, “Targeted inhibition of the COP9 signalosome for treatment of cancer” (Nature Communications, 2016).

System: panel of cancer cell lines
Test: Cell viability (CellTiter-Glo) dose-response across cancer cell line panel;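 note: after 72 h compound incubation with CellTiter-Glo ATP readout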
Format: cell-based, human
Conditions: Homo sapiens
Text: Next, we explored the effect of CSN5 inhibition on the viability of cancer cells. To obtain a comprehensive picture, we generated dose–response curves with a CSN5 inhibitor across more than 500 cancer cell lines in a previously described standardized setting[47] (Supplementary Data 1).
A standardized CellTiter-Glo Assay (Promega #G7570) based on the quantification of ATP was applied according to the manufacturer's protocol to measure the amount of viable cells in culture. In brief, cells were seeded into 384-well plates at optimal density for each cell line. After 4 h, compounds were added at different concentrations in growth medium and incubated for another 72 h in a humidifying chamber at 37 °C and 5% CO2. […] EC50 values were calculated from the plot of percentage of inhibition versus inhibitor concentration using the nonlinear regression analysis software Origin 7.5SR6 (OriginLab Corp.).

Compound `COCc1ccccc1NCc1ccc([C@H]2[C@@H](O)CCCc3cncn32)c(-c2ccccc2Cl)c1` [CSN5i-2, (5S,6S)-5-(2′-chloro-5-(((2-(methoxymethyl)phenyl)amino)methyl)-[1,1′-biphenyl]-2-yl)-6,7,8,9-tetrahydro-5H-imidazo[1,5-a]azepin-6-ol] has an EC50 (MOG-G-CCM) of 3480 nM, an EC50 (MOLM16, MOLM-16) of 133 nM and an EC50 (MOLM-13, MOLM-13) of 262 nM. The EC50 (MOLT-13, MOLT-13) was 217 nM, the EC50 (MOLT-16, MOLT-16) was 341 nM and the EC50 (MSTO-211H) was 1350 nM. The EC50 (MV4-11, MV-4-11) was 454 nM, the EC50 (Malme-3M) was 2060 nM and the EC50 (MeWo) was 472 nM. The EC50 (Mono-Mac-1, MONO-MAC-1) was 747 nM, the EC50 (NALM-6, NALM-6) was 209 nM and the EC50 (NB1, NB-1) was 531 nM. For the same compound, the EC50 (NB-4, NB-4) was 212 nM, the EC50 (NCI-H23, NCI-H23) was 347 nM and the EC50 (NCI-H28, NCI-H28) was 4700 nM. The EC50 (NCI-H82, NCI-H82) was 5190 nM, the EC50 (NCI-H146, NCI-H146) was 5250 nM and the EC50 (NCI-H211, NCI-H211) was 1730 nM. It also gave an EC50 (NCI-H322, NCI-H322) of 2540 nM, an EC50 (NCI-H441, NCI-H441) of 3410 nM and an EC50 (NCI-H460, NCI-H460) of 8610 nM. It also gave an EC50 (NCI-H520, NCI-H520) of 10800 nM, an EC50 (NCI-H647, NCI-H647) of over 30000 nM and an EC50 (NCI-H650, NCI-H650) of over 30000 nM. The EC50 (NCI-H661, NCI-H661) was 457 nM, the EC50 (NCI-H747, NCI-H747) was 733 nM and the EC50 (NCI-H810, NCI-H810) was 754 nM. For the same compound, the EC50 (NCI-H838, NCI-H838) was 1000 nM, the EC50 (NCI-H841, NCI-H841) was 1040 nM and the EC50 (NCI-H1048, NCI-H1048) was 1920 nM. The EC50 (NCI-H1155, NCI-H1155) was 653 nM, the EC50 (NCI-H1299, NCI-H1299) was 1520 nM and the EC50 (NCI-H1339, NCI-H1339) was 1130 nM. For the same compound, the EC50 (NCI-H1341) was 2010 nM, the EC50 (NCI-H1355, NCI-H1355) was 1280 nM and the EC50 (NCI-H1373, NCI-H1373) was 9300 nM. It also gave an EC50 (NCI-H1437, NCI-H1437) of 17700 nM, an EC50 (NCI-H1568, NCI-H1568) of 434 nM and an EC50 (NCI-H1650, NCI-H1650) of 1820 nM. It also gave an EC50 (NCI-H1666, NCI-H1666) of 11900 nM, an EC50 (NCI-H1703, NCI-H1703) of 1640 nM and an EC50 (NCI-H1755, NCI-H1755) of 967 nM. The EC50 (NCI-H1792, NCI-H1792) was 2270 nM, the EC50 (NCI-H1915, NCI-H1915) was 1270 nM and the EC50 (NCI-H1975, NCI-H1975) was 2830 nM. For the same compound, the EC50 (NCI-H2023, NCI-H2023) was 518 nM, the EC50 (NCI-H2030, NCI-H2030) was 559 nM and the EC50 (NCI-H2073, NCI-H2073) was 4450 nM. The EC50 (NCI-H2087, NCI-H2087) was 1120 nM, the EC50 (NCI-H2110, NCI-H2110) was 1760 nM and the EC50 (NCI-H2122, NCI-H2122) was 893 nM. The EC50 (NCI-H2126, NCI-H2126) was over 30000 nM, the EC50 (NCI-H2170, NCI-H2170) was 17500 nM and the EC50 (NCI-H2171, NCI-H2171) was 1340 nM. The EC50 (NCI-H2172, NCI-H2172) was 4890 nM, the EC50 (NCI-H2228, NCI-H2228) was 4930 nM and the EC50 (NCI-H2286, NCI-H2286) was 364 nM. It also gave an EC50 (NCI-H2444, NCI-H2444) of 322 nM, an EC50 (NCI-H2452, NCI-H2452) of 1940 nM and an EC50 (NCI-H3255, NCI-H3255) of over 30000 nM. For the same compound, the EC50 (NCI-N87, NCI-N87) was 106 nM, the EC50 (NO36) was 2000 nM and the EC50 (NOMO-1, NOMO-1) was 1640 nM. The EC50 (NUGC-3, NUGC-3) was 6500 nM, the EC50 (OCI-AML-3, OCI-AML3) was 1180 nM and the EC50 (OCI-AML-5, OCI-AML5) was 677 nM. For the same compound, the EC50 (OCI-Ly3, OCI-LY3) was 404 nM, the EC50 (ONCO-DG-1, ONCO-DG-1) was 1110 nM and the EC50 (OUMS-23, OUMS-23) was 747 nM. It also gave an EC50 (OV56, OV56) of 401 nM, an EC50 (OVCAR-3, NIH:OVCAR-3) of 523 nM and an EC50 (OVCAR-4, OVCAR-4) of 1540 nM. For the same compound, the EC50 (OVISE) was 29100 nM, the EC50 (P3HR-1, P3HR-1) was 560 nM and the EC50 (P12-Ichikawa) was 279 nM. It also gave an EC50 (P31-FUJ, P31/FUJ) of 690 nM, an EC50 (PANC-1, PANC-1) of 477 nM and an EC50 (PANC-03-27, Panc 03.27) of 679 nM. It also gave an EC50 (PC-3, PC-3) of 5890 nM, an EC50 (PC-14, PC-14) of 8990 nM and an EC50 (PE/CA-PJ49) of 970 nM. The EC50 (PF-382, PF-382) was 262 nM, the EC50 (PK-1, PK-1) was 2710 nM and the EC50 (PK-45H) was 1860 nM. The EC50 (PK-59, PK-59) was 1760 nM, the EC50 (PL45, PL45) was 722 nM and the EC50 (PL-21, PL-21) was 684 nM. For the same compound, the EC50 (PLC-PRF-5, PLC/PRF/5) was 6990 nM, the EC50 (PSN1, PSN1) was 1680 nM and the EC50 (PaTu 8902, PA-TU-8902) was 2330 nM. For the same compound, the EC50 (PaTu 8988t, PA-TU-8988T) was 5870 nM, the EC50 (Panc 04.03, Panc 04.03) was 6710 nM and the EC50 (Panc1005, Panc 10.05) was 308 nM. The EC50 (QGP-1, QGP-1) was over 30000 nM, the EC50 (RCM-1, RCM-1) was 2700 nM and the EC50 (RD) was 1830 nM. It also gave an EC50 (RD-ES) of 839 nM, an EC50 (RERF-LC-AI) of 581 nM and an EC50 (RERF-LC-MS) of 1560 nM. For the same compound, the EC50 (RKN) was 1130 nM, the EC50 (RKO) was 2720 nM and the EC50 (RMUG-S) was over 30000 nM. The EC50 (RPMI 8402, RPMI-8402) was 633 nM, the EC50 (RPMI-7951, RPMI-7951) was 16000 nM and the EC50 (RT-112, RT-112) was 5730 nM. For the same compound, the EC50 (RVH-421, RVH-421) was 2430 nM, the EC50 (Rh41, RH-41) was 952 nM and the EC50 (SCC-25, SCC-25) was 9930 nM. For the same compound, the EC50 (SCaBER) was 3550 nM, the EC50 (SEM) was 728 nM and the EC50 (SF8657) was over 30000 nM. For the same compound, the EC50 (SF-268, SF-268) was 1880 nM, the EC50 (SH-4, SH-4) was 426 nM and the EC50 (SH-10-TC) was 1390 nM. The EC50 (SH-SY5Y) was 3480 nM, the EC50 (SJRH30, SJRH30) was 1930 nM and the EC50 (SK-CO-1, SK-CO-1) was 1220 nM. For the same compound, the EC50 (SK-ES1, SK-ES-1) was 543 nM, the EC50 (SK-HEP1, SK-HEP-1) was 979 nM and the EC50 (SK-LU-1, SK-LU-1) was 3370 nM. The EC50 (SK-MEL3, SK-MEL-3) was 20000 nM, the EC50 (SK-MEL-2, SK-MEL-2) was 1940 nM and the EC50 (SK-MEL-5, SK-MEL-5) was 1590 nM. For the same compound, the EC50 (SK-MEL-28, SK-MEL-28) was 419 nM, the EC50 (SK-MEL-30, SK-MEL-30) was 2280 nM and the EC50 (SK-MEL-31) was 5350 nM. It also gave an EC50 (SK-N-SH) of 2610 nM, an EC50 (SK-OV-3, SK-OV-3) of over 30000 nM and an EC50 (SKM-1, SKM-1) of 487 nM. It also gave an EC50 (SKNBE2, SK-N-BE(2)) of 455 nM, an EC50 (SNB-19, SNB-19) of 2200 nM and an EC50 (SNG-M) of 370 nM. It also gave an EC50 (SNU878, SNU-878) of 6720 nM, an EC50 (SNU-8) of 601 nM and an EC50 (SNU-16, SNU-16) of 2080 nM. The EC50 (SNU-61) was 1990 nM, the EC50 (SNU-81) was 733 nM and the EC50 (SNU-175) was 806 nM. It also gave an EC50 (SNU-213) of 4010 nM, an EC50 (SNU-349) of 3550 nM and an EC50 (SNU-387, SNU-387) of 666 nM. For the same compound, the EC50 (SNU-398, SNU-398) was 277 nM, the EC50 (SNU-410) was 21100 nM and the EC50 (SNU-423, SNU-423) was 1310 nM.
